Source: the supplement of paper PMC10307832

Assays:
Assay in all cases: relative viability (nuclei count vs DMSO), 5 days (fraction); higher = more cells survive
[1] = compound: Cn1cc(-c2cnn3c(N)c(Br)c([C@@H]4CCCNC4)nc23)cn1 + CC(=O)Nc1cccc(-n2c(=O)n(C3CC3)c(=O)c3c(Nc4ccc(I)cc4F)n(C)c(=O)c(C)c32)c1 [Trametinib] (partner 0.02 µM)
Outline: (§1)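 Lung cancer cell lines, seeded in 1536-well plates, were treated the following day by pin tool with a single drug or with five library-drug doses (not always all listed) in √10 steps on top of a fixed anchor-drug dose. Cells were fixed and nuclei stained in one step after 5 days, and nuclei were counted. Relative viability is the nuclei count for treated wells divided by that for vehicle wells, reported as medians of duplicate plates.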

[2] = compound: Cn1cc(-c2cnn3c(N)c(Br)c([C@@H]4CCCNC4)nc23)cn1 + CS(=O)(=O)CCNCc1ccc(-c2ccc3ncnc(Nc4ccc(OCc5cccc(F)c5)c(Cl)c4)c3c2)o1 [Lapatinib] (partner 2 µM)
Outline: as §1

[3] = compound: Cn1cc(-c2cnn3c(N)c(Br)c([C@@H]4CCCNC4)nc23)cn1 + N=C(N)NC(=N)NCCc1ccccc1 [Phenformin] (partner 250 µM)
Outline: as §1

[4] = compound: Cn1cc(-c2cnn3c(N)c(Br)c([C@@H]4CCCNC4)nc23)cn1 + O=C(c1cc(Cc2n[nH]c(=O)c3ccccc23)ccc1F)N1CCN(C(=O)C2CC2)CC1 [Olaparib] (partner 8 µM)
Outline: as §1

| Cell Line | relative viability ([1]; first compound 0.05 µM) | relative viability ([1]; first compound 0.1581 µM) | relative viability ([1]; first compound 0.5 µM) | relative viability ([1]; first compound 1.581 µM) | relative viability ([1]; first compound 5 µM) | relative viability ([2]; first compound 0.05 µM) | relative viability ([2]; first compound 0.1581 µM) | relative viability ([2]; first compound 0.5 µM) | relative viability ([2]; first compound 1.581 µM) | relative viability ([2]; first compound 5 µM) | relative viability ([3]; first compound 0.05 µM) | relative viability ([3]; first compound 0.1581 µM) | relative viability ([3]; first compound 0.5 µM) | relative viability ([3]; first compound 1.581 µM) | relative viability ([3]; first compound 5 µM) | relative viability ([4]; first compound 0.05 µM) | relative viability ([4]; first compound 0.1581 µM) | relative viability ([4]; first compound 0.5 µM) | relative viability ([4]; first compound 1.581 µM) | relative viability ([4]; first compound 5 µM) |
| --- | --- | --- | --- | --- | --- | --- | --- | --- | --- | --- | --- | --- | --- | --- | --- | --- | --- | --- | --- | --- |
| HCC-827 | 0.499 | 0.541 | 0.556 | 0.549 | 0.444 | 0.234 | 0.197 | 0.196 | 0.178 | 0.152 | 0.289 | 0.452 | 0.368 | 0.388 | 0.389 | 0.707 | 0.622 | 0.766 | 0.628 | 0.339 |
| HCC-78 | 0.822 | 1.14 | 0.834 | 0.844 | 0.674 | 0.841 | 0.92 | 0.786 | 0.641 | 0.245 | – | 0.687 | 0.796 | 0.7 | 0.605 | 0.826 | 0.874 | 0.947 | 0.878 | 0.465 |
| NCI-H2085 | 0.532 | 0.664 | 0.548 | 0.484 | 0.287 | 0.801 | 0.847 | 0.893 | 0.738 | 0.621 | 0.692 | 0.746 | 0.737 | 0.626 | 0.516 | 0.813 | 0.849 | 0.776 | 0.762 | 0.752 |
| PC-14 | 0.816 | 0.929 | 0.581 | 0.337 | 0.272 | 0.322 | 0.366 | 0.363 | 0.332 | 0.257 | 0.515 | 0.429 | 0.668 | 0.388 | 0.211 | 0.211 | 0.213 | 0.222 | 0.19 | 0.125 |
| NCI-H2342 | 0.801 | 0.9 | 0.682 | 0.835 | 0.777 | – | – | – | – | – | 0.578 | 0.6 | 0.682 | 0.533 | 0.593 | 0.467 | 0.585 | 0.448 | 0.463 | 0.438 |
| A-427 | 0.756 | 0.675 | 0.704 | 0.651 | 0.341 | 0.979 | 1.14 | 0.986 | 0.839 | 0.959 | 0.348 | 0.324 | 0.288 | 0.284 | 0.269 | 0.819 | 0.761 | 0.742 | 0.704 | 0.561 |
| H3255 | 0.694 | 0.534 | 0.668 | 0.633 | 0.405 | 0.25 | 0.214 | 0.247 | 0.264 | 0.204 | 0.372 | 0.353 | 0.345 | 0.385 | 0.322 | 0.567 | 0.615 | 0.604 | 0.509 | 0.39 |
| HCC-44 | 0.998 | 1.09 | 1.12 | 1.08 | 1.13 | 1.01 | 1.15 | 1.1 | 0.8 | 0.968 | 0.155 | 0.193 | 0.179 | 0.188 | 0.172 | 1.01 | 0.975 | 1 | 0.91 | 1.01 |
| NCI-H1734 | 0.667 | 0.802 | 0.665 | 0.658 | 0.576 | 1.06 | 1.08 | 0.917 | 0.944 | 0.778 | 0.368 | 0.457 | 0.373 | 0.349 | 0.319 | 0.625 | 0.647 | 0.52 | 0.599 | 0.441 |
| NCI-H2228 | 0.717 | 0.563 | 0.5 | 0.282 | 0.239 | 1.54 | 1.14 | 1.2 | 0.493 | 0.378 | 0.274 | 0.256 | 0.373 | 0.184 | 0.194 | 0.546 | 0.688 | 0.675 | 0.508 | 0.359 |
| ABC-1 | – | – | – | – | – | 1.18 | 1.18 | 1.18 | 1.26 | 1.04 | 0.252 | 0.236 | 0.254 | 0.218 | 0.192 | – | 1.1 | 1.17 | 0.783 | 0.456 |
| COR-L23 | 0.694 | 0.671 | 0.582 | 0.437 | 0.232 | 0.966 | 1.26 | 1.03 | 0.471 | 0.445 | 0.479 | 0.474 | 0.443 | 0.298 | 0.191 | 0.38 | 0.302 | 0.3 | 0.249 | 0.168 |
| ChaGo-K-1 | 0.926 | 0.925 | 0.874 | 0.806 | 0.972 | – | – | – | – | – | 0.467 | 0.523 | 0.509 | 0.46 | 0.503 | 0.407 | 0.511 | 0.419 | 0.428 | 0.463 |
| EBC-1 | – | – | – | – | – | 0.207 | 0.183 | 0.24 | 0.223 | 0.192 | – | – | – | – | – | 0.846 | 0.854 | 0.726 | 0.75 | 0.616 |
| NCI-H441 | 0.431 | 0.491 | 0.426 | 0.337 | 0.429 | – | – | – | – | – | 0.785 | 1.15 | 0.915 | 0.841 | 0.727 | 0.672 | 0.697 | 0.494 | 0.37 | 0.43 |
| A549 | – | – | – | – | – | 1.03 | 1.11 | 0.909 | 0.795 | 0.643 | 0.158 | 0.907 | 0.215 | 0.149 | 0.115 | 0.483 | 0.35 | 0.352 | 0.301 | 0.166 |
| NCI-H1703 | – | – | – | – | – | 1.18 | 0.454 | 0.481 | 0.205 | 0.124 | – | – | – | – | – | 0.416 | 0.364 | 0.364 | 0.233 | 0.123 |
| LCLC-103H | 0.641 | 0.7 | 0.717 | 0.677 | 0.684 | – | – | – | – | – | 0.297 | 0.338 | 0.364 | 0.3 | 0.299 | 0.842 | 0.804 | 0.77 | 0.746 | 0.711 |
| NCI-H1563 | – | – | – | – | – | 0.941 | 0.861 | 0.888 | 0.859 | 0.888 | 0.593 | 0.658 | 0.642 | 0.614 | 0.605 | – | – | – | – | – |
